Here are results for 7 molecules from article PMC8536978 (Viruses, 2021).

Where two headings read alike, the source gives them in different places.

Data set [1] deals with TAR RNA. More on the design: method as in earlier work. To be noted: cited from earlier work.
The nature of data set [2]: MTT cell proliferation/viability assay. The format is cell-based. The following applies: human, CEM T cells, 1-100 μM.
Data set [3] has as its system luciferase translation. The data set can be described thus: In vitro translation of luciferase RNA in rabbit reticulocyte lysate. The format is biochemical. To be noted: 30 μM, 90 min.
Data set [4] concerns the target Tat–CDK9 interaction (UniProt P04608+P50750). The data set can be described thus: Co-immunoprecipitation of CDK9 with Flag-Tat from 293T cells. To be noted: 20 μM, 24 h. The format is cell-based.
Data set [5] relates to Tat–TAR RNA interaction. Put plainly: Tat–TAR RNA interaction pull-down assay. The following applies: 10 µM compound, Flag-Tat lysate, biotinylated TAR RNA on beads. The format is binding, HIV-1.
Data set [6] has as its system HIV-1 IIIB. Put plainly: HIV-1 IIIB replication in CEM T cells (p24 ELISA, gag mRNA RT-PCR). The format is cell-based. To be noted: CEM T cells infected with HIV-1 IIIB; for reduction in p24 levels: p24 ELISA; for reduction of HIV-1 gag mRNA: real-time RT-PCR. On the technique in general: ELISA stands for enzyme-linked immunosorbent assay.
The subject of data set [7] is HIV-1-LUC-G (VSVG pseudotyped HIV-1 expressing luciferase). The data set can be described thus: microbe, parasite or virus in culture. The format is cell-based. To be noted: for IC50: read-out: One round HIV-1 infection IC50.
The test system of data set [8] is HIV-1 LTR + Tat. The format is cell-based. The following applies: Human immunodeficiency virus 1, HEK-293T, 24 h, read-out: HIV-1 LTR + Tat (Tat-induced transcription) IC50.
Data set [9] concerns HIV-1 IIIB. The data set can be described thus: HIV-1 IIIB replication in PBMCs (p24 ELISA, gag and nef mRNA RT-PCR). The format is cell-based. To be noted: for reduction in p24 / reduction in HIV-1 nef mRNA / reduction in gag mRNA: PBMCs infected with HIV-1 IIIB; for reduction in p24: p24 ELISA; for reduction in HIV-1 nef mRNA / reduction in gag mRNA: real-time RT-PCR.
In data set [10] the target is Tat–cyclin T1 interaction (UniProt O60563+P04608). The data set can be described thus: Co-immunoprecipitation of cyclin T1 with Flag-Tat from 293T cells. The format is cell-based. To be noted: 24 h; for reduction of cyclin T1 associated with Tat: 20 μM.
In data set [11] the test system is HIV-1 reverse transcription. Put plainly: HIV-1 reverse transcription, early and late LTR DNA products by real-time PCR. The format is cell-based. The following applies: HIV-1 DNA 6 h post infection. Background: In qPCR the cycle at which signal appears reflects the starting amount.
In data set [12] the test system is PBMCs. The data set can be described thus: Trypan blue exclusion viability of HIV-1 IIIB infected PBMCs. The format is cell-based.
Data set [13] concerns HIV-1 LTR. Put plainly: Basal HIV-1 transcription, HIV-1 LTR-luciferase reporter in 293T cells. The format is cell-based. The following applies: HIV-1 LTR-luciferase reporter alone, 24 h treatment. In general terms: A reporter such as luciferase makes a cellular process visible.
[14] abbreviates: Human immunodeficiency virus 1, T-cell.

Chain of Tat–cyclin T1 interaction (P04608 whole entry): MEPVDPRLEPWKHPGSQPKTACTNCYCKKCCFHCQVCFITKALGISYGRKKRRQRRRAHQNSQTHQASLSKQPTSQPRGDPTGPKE
Chain of Tat–cyclin T1 interaction (O60563 whole entry): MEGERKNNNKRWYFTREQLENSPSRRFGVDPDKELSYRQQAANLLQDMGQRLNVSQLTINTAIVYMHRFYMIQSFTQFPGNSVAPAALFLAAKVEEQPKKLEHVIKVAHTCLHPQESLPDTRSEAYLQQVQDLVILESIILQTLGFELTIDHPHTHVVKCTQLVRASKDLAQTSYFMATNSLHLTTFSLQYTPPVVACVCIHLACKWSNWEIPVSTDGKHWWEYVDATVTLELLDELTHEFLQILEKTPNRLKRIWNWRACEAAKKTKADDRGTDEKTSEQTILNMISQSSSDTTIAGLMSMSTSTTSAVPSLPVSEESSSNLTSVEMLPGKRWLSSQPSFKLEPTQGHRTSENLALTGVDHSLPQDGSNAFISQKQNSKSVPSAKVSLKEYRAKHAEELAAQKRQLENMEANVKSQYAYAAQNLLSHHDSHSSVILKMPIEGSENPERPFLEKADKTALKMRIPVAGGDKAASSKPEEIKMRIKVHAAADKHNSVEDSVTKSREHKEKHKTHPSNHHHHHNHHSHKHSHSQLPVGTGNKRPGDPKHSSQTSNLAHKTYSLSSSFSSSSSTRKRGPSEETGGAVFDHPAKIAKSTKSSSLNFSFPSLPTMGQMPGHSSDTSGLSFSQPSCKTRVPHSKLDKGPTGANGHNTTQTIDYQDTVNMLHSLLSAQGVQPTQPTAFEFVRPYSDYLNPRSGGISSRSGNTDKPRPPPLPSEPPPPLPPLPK
Chain of Tat–CDK9 interaction (P04608 whole entry): as the sequence (P04608 whole entry) above
Chain of Tat–CDK9 interaction (P50750 whole entry): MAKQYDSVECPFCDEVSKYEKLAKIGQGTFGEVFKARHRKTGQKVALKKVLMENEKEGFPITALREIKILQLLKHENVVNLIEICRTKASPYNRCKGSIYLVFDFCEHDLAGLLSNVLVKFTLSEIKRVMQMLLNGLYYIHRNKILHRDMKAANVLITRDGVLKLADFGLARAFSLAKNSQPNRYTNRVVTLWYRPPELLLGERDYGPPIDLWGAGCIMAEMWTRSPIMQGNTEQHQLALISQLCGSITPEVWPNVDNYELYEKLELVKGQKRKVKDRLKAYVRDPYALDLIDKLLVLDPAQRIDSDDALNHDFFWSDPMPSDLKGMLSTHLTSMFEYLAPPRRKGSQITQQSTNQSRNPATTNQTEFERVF

Regarding `CC(=O)c1ccc2c(c1)N(CCCN(C)C)c1ccccc1S2` [acetylpromazine], the “affinity of binding to TAR RNA” value in data set [1] is reported as “high affinity (nanomolar)”.

The term EC50 denotes the midpoint of the concentration-response curve. For orientation: IC50 means the midpoint of a concentration-inhibition curve. The molecule `Nc1ccc2oc(-c3cc(F)c(F)cc3Cl)nc2c1` [T0516-4834] yielded an EC50 at 24 h in data set [2] above 100 µM. The “reduction in luciferase translation” value in [3] is recorded as ~ 30%. In addition, the “reduction in CDK9 associated with Tat” value in [4] is reported as 1.4 fold. In data set [5], the “inhibition of Tat binding to TAR RNA” value is recorded as 2.5 fold. In data set [6], the “reduction in p24 levels” value stood at 4 fold and the “reduction of HIV-1 gag mRNA” value is on record as 27 fold. In addition, in data set [7], the “Luciferase (%, relative to DMSO control)” value came out at 37.74% and the IC50 came to 0.3 µM. Moreover, the IC50 in data set [7] (setting [14]) worked out at 0.2 µM. Also, in data set [8], the IC50 was 2 µM. In data set [9] (HIV-1 IIIB infected PBMCs, 10 µM), the HIV-1 inhibition is on record as ~ 10 fold. Further, in data set [9], the “reduction in p24” value was found to be 4 fold, the “reduction in HIV-1 nef mRNA” value is 10 fold and the “reduction in gag mRNA” value is reported as 2.5 fold. In addition, in data set [10] (HEK-293T, read-out: reduction of cyclin T1 associated with Tat), the inhibition at 20 µM was below 20%.

As for `Cc1cn([C@H]2C[C@H](N=[N+]=[N-])[C@@H](CO)O2)c(=O)[nH]c1=O` [AZT, azidothymidine], in data set [11], the “reduction of HIV-1 early LTR products” value is reported as 1.8 fold and the “reduction of HIV-1 late LTR products” value was determined as 63 fold. Also, in data set [12] (human, 48 h), the “reduction of PBMCs viability” value was determined as 29%. In addition, the “reduction in gag mRNA” value in [9] is on record as “strongly inhibited HIV-1”.

In data set [2], `O=C1OCCC1Sc1nnc(-c2sc3ccccc3c2Cl)o1` (centres unmarked) [T5628834] displayed an EC50 at 24 h above 100 µM. Besides, the “reduction in CDK9 associated with Tat” value in [4] worked out at 4 fold. Moreover, in [6], the “reduction in p24 levels” value amounted to 1.26 fold and the “reduction of HIV-1 gag mRNA” value worked out at 1.6 fold. In data set [7], the “Luciferase (%, relative to DMSO control)” value was 28.71% and the IC50 was 3.7 µM. For the same molecule, the IC50 in [7] (setting [14]) worked out at 3.46 µM. Further, the IC50 in data set [8] was 20 µM. Further, in [9], the “reduction in p24” value came out at 3.2 fold and the “reduction in HIV-1 nef mRNA” value is on record as “no effect”. Moreover, the “reduction of cyclin T1 associated with Tat” value in data set [10] was 1.6 fold.

With `O=C(O)COc1ccc(/C=C/C(=O)c2ccc3c(c2)OCO3)cc1` [T6780107], in [2], the EC50 at 24 h is above 100 µM. This molecule showed an IC50 in data set [13] of 4.63 µM. For the same molecule, the “reduction in CDK9 associated with Tat” value in [4] is recorded as “no effect”. In [6], the “reduction in p24 levels” value is reported as 2.2 fold and the “reduction of HIV-1 gag mRNA” value was 5.5 fold. Besides, in [7], the “Luciferase (%, relative to DMSO control)” value is 18.24% and the IC50 came to 3.7 µM. Besides, in [7] (setting [14]), the concentration for half-maximal inhibition (IC50) was 2.97 µM. Moreover, the IC50 in data set [8] stood at 3.5 µM. Moreover, in data set [9], the “reduction in p24” value is listed as “No significant effect”, the “reduction in HIV-1 nef mRNA” value is “no effect” and the “reduction in gag mRNA” value was “No significant effect”. Also, in data set [10], the “reduction of cyclin T1 associated with Tat” value is on record as “no significant effect”.

On to `Cc1nnc(C(=O)NC(C)(C)c2nc(C(=O)NCc3ccc(F)cc3)c(O)c(=O)n2C)o1` [raltegravir, reference compound], for which, in data set [12] (HIV-1 IIIB infected PBMCs, trypan blue exclusion), the “reduction of PBMCs viability” value came to 18%. The “reduction in gag mRNA” value in [9] is listed as “strongly inhibited HIV-1”.

On to `C[C@@H]1C[C@@H]([C@H](O)CC2CC(=O)NC(=O)C2)C(=O)[C@@H](C)C1` [cycloheximide, reference compound], for which, in [3], the “reduction in luciferase translation” value was “completely blocked translation”.
